Values quoted from earlier work as cited in patent US20060068011A1, “Simultaneous encapsulation technique for use in pharmaceutical compositions” (Wyeth, priority 2004, published 2006).

- solubility in water: sparingly water soluble
Structure (SMILES): COc1ccccc1OCC(O)CO (stereo not shown) [Guaifenesin, guaifenesin]
